Earlier results on 1 substance are cited in publication PMC4026281 (Journal of neurochemistry, 2012).

The series has as its system rat α6/3β2 chimeric nAChRs. The following applies: cited from earlier work.

Take α-conotoxin MII [α-CtxMII]: the “t1/2 of recovery from α-CtxMII inhibition, rat α6/3β2 chimeric nAChRs” value was greater than 20 min.
